Tests used:
Type in all cases: in vivo
ovariectomized hamsters [1] = experiment: Serum [non-HDL]/[HDL] ratio and kidney cholesterol in ovariectomized hamsters; conditions: Positive control, 17β Estradiol 21 day release 0.5 mg/pellet
Method: Animals: hamsters, female, weighed 100 g, bred at the Laboratory Animal Services Center (LASEC) of the Chinese University of Hong Kong, randomly divided into 6 groups.
Dose: 0.5 mg/pellet, catalogue no.: E121 • The sham operated group: hamsters received the operation but not ovariectomy. Method:
47 hamsters weighed 100 g were divided into 6 groups including the positive group, negative group, sham operated and 3 dosage groups (low, medium and high). All hamsters except those in the sham operated group received ovariectomy. A month after the ovariectomy operation, all hamsters were administered intragastrically with drugs and doses indicated above, once a day for consecutive 4 weeks. […] The non-HDL/HDL ratio in serum was analyzed according to See Ho K K W, Leung L K, Chan F L, Huang Y, Chen Z Y (2003).
The hamsters received administration intragastrically for another 4 weeks prior to killing by nitrogen narcosis. The cholesterol level in kidney was measured by gas chromatography.
300 mg of the kidney and 1 mg of the internal standard (IS), stigniastanol (Sigma, S-4297) was homogenized using Polytron homogenizer in 15 ml chloroform-methanol (2:1, v/v) and 3 ml 0.9% saline. […] The TMS-ether derivative was analyzed in a fused silica capillary column (SAC™-5, 30 m×0.25 mm, i.d.; Supelco, Inc., Bellefonte, Pa., USA) in a Shimadzu GC 14B GLC equipped with a flame-ionization detector (Shimadzu). […]

ovariectomized hamsters [2] = experiment: Ferric Reducing Ability of Plasma (FRAP) in ovariectomized hamsters; conditions: Positive control
Excerpt: The higher the anti-oxidation level, the more Fe^2+ ions are reduced from Fe^3+ ions. See Benzie I F and Szeto Y T (1999).
47 female hamsters, weighed about 100 g, bred at the Laboratory Animal Services Center (LASEC) of the Chinese University of Hong Kong, were randomly divided into 6 groups.
Apparatus: • UV-visible spectrophometer: manufacturer Shimadzu, product code: UV-1601
Method: 47 female hamsters weighed 100 g were divided into 6 groups, including three test groups 1, 2, and 3, the positive control group 4, the negative control group 5, and the sham operated group 6.
The hamsters in groups 1-5 were ovariectomized. A month afterwards, the hamsters in groups 1-6 were administered intragastrically with the drugs and doses indicated above, once every day for consecutive 4 weeks. After 4 weeks of administration, blood samples were obtained from the orbital venous sinus, and were subjected to centrifugation at 10,000 rpm for 10 minutes to collect serum. 10 μl of serum was diluted with 490 μl double distilled water. 300 μl freshly prepared FRAP reagent was then added to initiate the reaction. The samples were placed under 593 nm to observe the changes of absorbance during the first 10 minutes of the reduction of Fe^3+ to Fe^2+. The increase in absorbance is an indicator of the level of reduction. The Ferric Reducing Ability of Plasma (FRAP) values were determined as follows: […]

KM mice [3] = experiment: Open field test (spontaneous activity); conditions: female KM mice; oral; Composition I 14 g (crude herb)/kg/d 14 days, Diazepam 1.0 mg/kg once on day 14
Method: KM mice, females, weighed between 18-20 g, purchased from Shanghai Experimental Animal Center, the Chinese Academy of Sciences.
• Multi-functional Auto-Motion Recorder for Mouse/Rat: manufactured by Facility Station of Shandong Academy of Medical Science. Product code: YLS-1B.
Drug, dose, and the administration formulation: • For negative control group: 0.9% saline. • For positive control group: Diazepam as described above. The dose was 1.0 mg/kg weight/d. […] The dose was 14 g (crude herb)/kg weight/d. […] Method:
Thirty normal female mice weighed between 18-20 g were randomized into 3 groups of 10: negative control, positive control and the test group. For the negative control and testing group, the drugs were administered to the mice orally with the doses and formulations described above, once per day for consecutive 14 days. For the positive control group, the drug was given on the day fourteen orally. One hour after the last administration, the mice were individually placed into a box with infrared detection light to record their spontaneous activities in 3 minutes.

[4] = test system: pentobarbital sodium-injected mice; experiment: Sleeping test (pentobarbital sodium-induced sleep); conditions: female KM mice; oral; Composition I 56 g (crude herb)/kg/d 14 days, Diazepam 0.5 mg/kg once on day 14; pentobarbital sodium 35 mg/kg i.p. 1 h after last dose
Experimental: According to Xu S Y. (1991 ), Chen Q. (1996 ), Zhang J T. (1998 ), Zhu X D. and Tang X C. (1998 ), an agent is deemed to have sedative and hypnotic effects if it can prolong the duration of the sleep, as indicated by the disappearance of right reflex, of pentobarbital sodium-injected mice
Drug, dose, and the administration formulation: • For negative control group: 0.9% saline. • For positive control group: Diazepam, purchased from BangNing Pharmaceutical Co. Ltd. The dose was 0.5 mg/kg weight/d. […] The dose was 56 g (crude herb)/kg weight/d. […] Method:
Thirty normal female mice weighed between 18-20 g were randomized into 3 groups of 10: the negative control group, the positive control group, and the test group. For the negative control and testing group, the drugs were administered to the mice orally with the doses and formulations indicated, once per day for consecutive 14 days. For the positive control group, the drug was given on the day fourteen orally. One hour after the last administrations, all mice were injected with 35 mg/kg of pentobarbital sodium intraperitoneally. The duration of the disappearance of righting reflex was observed and recorded. According to Zhang J T. (1998 ), the duration of the disappearance of righting reflex equals to the sleeping time.

normal female mice = experiment: Dark-light box test on normal mice; conditions: within 10 minutes, oral, Composition I 56 g (crude herb)/kg/d 14 days, Diazepam 1.0 mg/kg once on day 14, 1 h after last dose
Experimental: In the experiment, mice were placed in Shimada light and dark box. The times of mice shuttling between the boxes and the duration of mice staying in the dark/light box were recorded.
• Shimada light and dark box: size: 40 cm×40 cm×12 cm, having a light box (20 cm×20 cm×12 cm) at the center, and two dark boxes (10 cm×10 cm×12 cm) at two diagonal corners. Two L-shaped tracks are connected to two sides of each dark box. Manufacturer: Shanghai Institute of Pharmaceutical Industry. Animals:
Thirty normal female mice weighed between 18-20 g were randomized into 3 groups of 10: negative control, positive control (Diazepam) and the test group. The mice in the negative and test groups were administered orally with respective drugs and doses as indicated above, once a day for consecutive 14 days. The mice in the positive control group received only one dose orally as indicated above on day fourteen. 1 hour after the last administration on day fourteen, all the mice were placed in the Shimada light and dark box.

ovariectomized rats [5] = experiment: Elevated plus-maze test on ovariectomized rats; conditions: oral, Composition I 14 g (crude herb)/kg/d 14 days, Diazepam 0.5 mg/kg once on day 14, 1 h after last dose
Method: SD rats, female, weighed 230-250 g, purchased from Shanghai Experimental Animal Center, the Chinese Academy of Sciences.
• For negative control group: 0.9% saline. • For positive control group: Diazepam as described above. The dose was 0.5 mg/kg weight. • For test group: Composition as prepared in Experiment 1. The dose was 14 g (crude herb)/kg weight/d. Method:
Thirty female rats were divided into the above-mentioned 3 groups randomly and were anaesthetized by intraperitoneal injection with 60 mg/kg Pentobarbital Sodium. Two cuts were made on the back of the rats, each cut being 1.5 cm from the spine. The two ovaries were taken from the two cuts, respectively. The cuts were then sealed. The drug administration began 1 week after the ovariectomization. […] The rats in the positive control group received Diazepam orally only once on day fourteen. 1 hour after the last administration, the rats were placed in a maze.

ovariectomized mice = experiment: Dark-light box test on ovariectomized mice; conditions: within 10 minutes, oral, Composition I 14 g (crude herb)/kg/d 14 days, Diazepam 1.0 mg/kg once on day 14, 1 h after last dose
Experimental: The same experiment of Example 5 was conducted on ovariectomized mice. […] See Xu S Y. (1991), Chen Q. (1996), Zhang J T. (1998).
Apparatus: Same as Example 5.
Animals: Same as Example 5.
Negative control group: 0.9% saline,
Positive control group: Diazepam, 1.0 mg/kg weight
Thirty female mice were anaesthetized by intraperitoneal injection with 35 mg/kg Pentobarbital Sodium. Two cuts were made on the back of the rats, each cut being 1.5 cm from the spine. The two ovaries were taken from the two cuts, respectively. The cuts were then sealed. 1 week after the ovariectomization, the 30 mice were randomly divided into 3 groups, and the same administration procedures as Example 5 were followed, using drugs and doses specified above. 1 hour after the last administration on day fourteen, all the mice were placed in the Shimada light and dark box.

ovariectomized rats [6] = experiment: Serum estrogen and progesterone levels (RIA), uterus weight and visceral index in ovariectomized rats; conditions: ovariectomized SD rats, 28 days once daily, n = 6
Experimental: Female hormone stimulates estrogen in overiectomized female mice/rats.
SD rats, female, weighted between 220-250 g before administration, purchased from Shanghai Sino-British Sippr/BK LAB Animal Ltd., randomly split into 5 groups.
• Negative control group: 0.9% saline • Positive control group: • 1. Estradiol Benzoate, purchased from Shanghai No. 9 Pharmaceutical Ltd. Dose: 0.01 mg/kg weight/day • 2. ZuoGuiWan, purchased from Shanghai Leiyunshang Fengbang Pharmaceutical Co., Ltd. • 3. GengNianAn, purchased from Zhongxin Pharmacy Tianjin Leren Tang Pharmaceutical Factory. […] Dose: 1.0 ml/100 g weight/day • Positive control group: • 1. Estradiol Benzoate, Dose: […] dissolved in peanut oil (0.01 mg/ml). • 2. ZuoGuiWan, Dose: 7 g/kg weight/day dissolved in 0.5% CMC—Na, • 3. GengNianAn, Dose: 6 g/kg weight/day dissolved in 0.5% CMC—Na, • 5.
Thirty ovariectomized female SD rats weighed between 220.0-250.0 g were randomized into 5 groups: the negative control group, the positive control group, comprising 1. Estradiol Benzoate group, 2. ZuoGuiWan group, 3. GengNianAn group, and the test group. The rats in the negative control, ZuoGuiWan, GengNianAn and the test groups received respective drug and dose as indicated intragastrically. The rats in Estradiol Benzoate were injected with estradiol at the above-indicated dose. All rats received administration once everyday for consecutive 28 days. During the 28 days, a daily pap smear was performed before drug administration. Twenty-four hours after the last administration, all of the rats were weighed, anesthetized, blood withdrawn and killed. The uterus was then removed and half of the uterus was weight in wet. The other half of the uterus was dried for 8 hours in an oven for the measurement of dried weight. The serum estrogen and progesterone levels were determined using radioimmunoassay (RIA) method.

KM mice [7] = experiment: Step-down test on normal mice (scopolamine); conditions: n = 10 mice, oral 14 days: Composition I 14 g (crude herb)/kg/d, Huperzine A 1.5 ug/kg/d
Excerpt: A step-down recorder, comprising a platform and a copper floor, is provided. The mice were placed on the copper floor. When the cooper floor is electrified, the normal reaction of the mice is to jump up to the platform to avoid the electric shock. After a period of time, the mice may forget about the shock and jump back to the floor. This jumping back to the floor is an “error reaction”. The mice that jump back to the floor received electric shock again and would jump back to the platform again. The duration between the first jump up (to the platform) and back (to the floor) is called the “latency period”. The number of jumping backs (error reactions) in a certain period of time could serve as an indicator of the memory of the mice.
Based on the Principle, agents that are able to reduce the error reactions of mice in a certain period of time and […] the latent period are deemed effective in memory improvement. Xu S Y. (1991), Chen Q. (1996), Zhang J T. (1998),Yang J, Wang J, et al. (2000).
Code: YLS-2 T, purchased from Facility station of Shandong Academy of Medical Science Method:
Thirty normal female mice were randomized into 3 groups of 10: negative control, positive control (Huperzine A) and the test group. Mice in the three groups received respective drugs and doses orally as indicated above, once per day for consecutive 14 days. An hour after the last administration, all the mice were administrated with 2 mg/kg scopolamine intraperitoneally. 30 minutes later, the mice were placed in the step down recorder for 5 minutes for pre-adaptation. After the pre-adaptation, the copper floor was electrified for 5 minutes. The number of electric shocks each mouse received in the 5 minutes was recorded. After 24 hours, the test was conducted again.
The number of shocked mice, the latency period of each mouse, and the average number of error reactions in 3 minutes were recorded.

KM mice [8] = experiment: Step through test on normal mice (ethanol-induced memory impairment); conditions: oral 14 days: Composition I 14 g (crude herb)/kg/day, Huperzine A 1.5 ug/kg/day
Excerpt: A Step Through Test Box for Mouse with a light room and a dark room inside is provided. The mice are placed in the light room with their back facing the door. When the mice come out from the light room and enter the dark room, they get shocked, such behavior is called an error reaction. The first duration before an error reaction occurs after a mouse is placed in the box is called the latency period. Mice bearing better memories have longer latency period and commit less error reactions in a certain period of time.
Agents that are able to increase the latency period and reduce error reactions of mice in the Step Through Test Box are deemed effective in improving the memory of animals. Reference: Xu S Y (1991), Chen Q (1996), Zhang J T. (1998), Yang J, Want J. et al (2000), and Zhu X D and Tang X C.
Animals: KM mice, female, 18-20 g, purchased from Shanghai Experimental Animal Center of the Chinese Academy of Sciences.
Thirty normal female mice weighed between 18-20 g were randomized into 3 groups of 10: negative control, positive control (Huperzine A) and the test group. The mice were administered orally with the above-indicated doses and drugs, once a day for 14 days. An hour after the last administration (day 14), all the mice were orally given 45% ethanol (0.1 ml/10 g). 30 minutes later, the mice were placed in the light room of the test box with their back facing the door. When the mice entered the dark room and got shocked, the latency period was recorded (the 1st latency period). The test was conducted again 24 hours later, wherein the number of mice entering the dark room (error reaction) and the latency period (the 2nd latency period) were recorded.

[9] = Composition I 7 g (crude herb)/kg/day i.g., ZuoGuiWan 7 g/kg/day, GengNianAn 6 g/kg/day, Estradiol Benzoate 0.01 mg/kg/day injected
[10] = 5 minutes pre-adaptation (first test), scopolamine 2 mg/kg i.p.
[11] = 24 hours after scopolamine administration
[12] = The second test (24 h later), 45% ethanol

C[C@]12CC[C@@H]3c4ccc(O)cc4CC[C@H]3[C@@H]1CC[C@@H]2O [17β Estradiol]
Kidney cholesterol (ovariectomized hamsters [1]): 3.5 ± 0.4 mg/g | Percentage of FRAP value remained after 4 weeks of treatment (ovariectomized hamsters [2]): 88.32 ± 21.06 (p = 0.17) %

CN1C(=O)CN=C(c2ccccc2)c2cc(Cl)ccc21 [Diazepam]
Locomotion times during the 3 minutes, 1 hour after drug (KM mice [3]): 61.0 ± 11.6 | Locomotion times during the 3 minutes, 3 hour after drug (KM mice [3]): 46.2 ± 11.3 | Sleeping Time [4]: 2927.8 ± 1061.2 s | Shuttle Time (normal female mice): 76.1 ± 8.90 | Time spent in dark box (normal female mice): 166.6 ± 45.05 | Time spent in open arm × 100% / Time spent in both arms (ovariectomized rats [5]): 6 ± 7% | Times of entering open arm × 100% / Times of entering both arms (ovariectomized rats [5]): 12 ± 11% | Shuttle Time (ovariectomized mice): 20.5 ± 10.7 (p = 0.874) | Time spent in dark box (ovariectomized mice): 47.4 ± 31.9

C[C@]12CC[C@@H]3c4ccc(OC(=O)c5ccccc5)cc4CC[C@H]3[C@@H]1CC[C@@H]2O [Estradiol Benzoate]
Serum Estrogen (ovariectomized rats [6]; [9]): 33.00 ± 21.76 ng/mL | Serum Progesterone (ovariectomized rats [6]; [9]): 25.85 ± 6.15 ng/mL | Visceral Index (ovariectomized rats [6]; doses as for serum levels): 0.246 ± 0.030 g/100 g BW | Wet weight of uterus (ovariectomized rats [6]; doses as for serum levels): 0.597 ± 0.064 g

C/C=C1\[C@H]2C=C(C)C[C@]1(N)c1ccc(=O)[nH]c1C2 [Huperzine A]
Number of shocks per mouse (KM mice [7]; [10]): 5.7 ± 2.7 | Total number of shocks (KM mice [7]; [10]): 51 | First step down latency period (KM mice [7]; [11]): 200.6 ± 137.2 s | Number of error reactions in 3 minutes (KM mice [7]; [11]): 8 | Number of shocked mice (KM mice [7]; [11]): 5 | The 1st latency period (KM mice [8]; The first test, 45% ethanol 0.1 ml/10 g orally): 19.3 ± 16.16 | No. of error reactions (KM mice [8]; [12]): 1.4 ± 2.0 | The 2nd latency period (KM mice [8]; [12]): 196.2 ± 121.9

Reference: US20060275510A1, “Formulations for menopausal syndromes” (Hong Kong Jockey Club Institute of Chinese Medicine Limited, priority 2005, published 2006)
